Measurements as given in article PMC10175918 (Communications Biology, 2023).
Read-outs that look alike come from different tables or passages of the source.

Key:
Test in all cases: TGFα-shedding assay-based GPCR screening with chimeric Gα subunit proteins
Format in all cases: cell-based
348 GPCRs [1] = target: T1, 348 GPCRs (Homo sapiens, UniProt P30559)
T1 construct: expressed in transfected cells; host or cells: HEK293A
T1 sequence (P30559 1-389): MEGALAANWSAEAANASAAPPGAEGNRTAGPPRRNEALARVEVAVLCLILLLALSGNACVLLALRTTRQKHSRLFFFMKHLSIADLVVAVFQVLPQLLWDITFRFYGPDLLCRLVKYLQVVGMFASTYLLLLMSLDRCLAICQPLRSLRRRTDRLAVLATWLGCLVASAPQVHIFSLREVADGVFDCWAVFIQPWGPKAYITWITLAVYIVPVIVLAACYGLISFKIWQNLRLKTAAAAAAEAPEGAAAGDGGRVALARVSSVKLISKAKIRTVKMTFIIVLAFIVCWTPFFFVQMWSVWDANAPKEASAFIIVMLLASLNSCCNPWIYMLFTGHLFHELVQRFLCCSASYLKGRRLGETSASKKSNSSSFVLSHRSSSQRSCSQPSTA

348 GPCRs [2] = target: T2, 348 GPCRs (Homo sapiens, UniProt P47901)
T2 construct: expressed in transfected cells; host or cells: HEK293A
T2 sequence (P47901 1-424): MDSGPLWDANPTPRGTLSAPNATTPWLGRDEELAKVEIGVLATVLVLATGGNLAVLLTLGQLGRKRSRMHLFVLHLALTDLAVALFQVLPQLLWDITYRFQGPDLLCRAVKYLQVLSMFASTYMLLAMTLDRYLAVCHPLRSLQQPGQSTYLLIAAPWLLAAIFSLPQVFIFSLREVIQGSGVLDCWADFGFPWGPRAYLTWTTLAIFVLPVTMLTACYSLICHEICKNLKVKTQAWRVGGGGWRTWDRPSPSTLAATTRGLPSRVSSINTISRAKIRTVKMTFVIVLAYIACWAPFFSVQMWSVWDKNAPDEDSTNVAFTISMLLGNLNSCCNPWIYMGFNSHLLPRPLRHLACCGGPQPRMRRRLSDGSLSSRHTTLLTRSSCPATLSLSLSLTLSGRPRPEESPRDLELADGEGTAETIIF

348 GPCRs [3] = target: T3, 348 GPCRs (Homo sapiens, UniProt Q13585)
T3 construct: expressed in transfected cells; host or cells: HEK293A

348 GPCRs [4] = target: T4, 348 GPCRs (Homo sapiens, UniProt Q96PE1)
T4 sequence (Q96PE1 34-1338): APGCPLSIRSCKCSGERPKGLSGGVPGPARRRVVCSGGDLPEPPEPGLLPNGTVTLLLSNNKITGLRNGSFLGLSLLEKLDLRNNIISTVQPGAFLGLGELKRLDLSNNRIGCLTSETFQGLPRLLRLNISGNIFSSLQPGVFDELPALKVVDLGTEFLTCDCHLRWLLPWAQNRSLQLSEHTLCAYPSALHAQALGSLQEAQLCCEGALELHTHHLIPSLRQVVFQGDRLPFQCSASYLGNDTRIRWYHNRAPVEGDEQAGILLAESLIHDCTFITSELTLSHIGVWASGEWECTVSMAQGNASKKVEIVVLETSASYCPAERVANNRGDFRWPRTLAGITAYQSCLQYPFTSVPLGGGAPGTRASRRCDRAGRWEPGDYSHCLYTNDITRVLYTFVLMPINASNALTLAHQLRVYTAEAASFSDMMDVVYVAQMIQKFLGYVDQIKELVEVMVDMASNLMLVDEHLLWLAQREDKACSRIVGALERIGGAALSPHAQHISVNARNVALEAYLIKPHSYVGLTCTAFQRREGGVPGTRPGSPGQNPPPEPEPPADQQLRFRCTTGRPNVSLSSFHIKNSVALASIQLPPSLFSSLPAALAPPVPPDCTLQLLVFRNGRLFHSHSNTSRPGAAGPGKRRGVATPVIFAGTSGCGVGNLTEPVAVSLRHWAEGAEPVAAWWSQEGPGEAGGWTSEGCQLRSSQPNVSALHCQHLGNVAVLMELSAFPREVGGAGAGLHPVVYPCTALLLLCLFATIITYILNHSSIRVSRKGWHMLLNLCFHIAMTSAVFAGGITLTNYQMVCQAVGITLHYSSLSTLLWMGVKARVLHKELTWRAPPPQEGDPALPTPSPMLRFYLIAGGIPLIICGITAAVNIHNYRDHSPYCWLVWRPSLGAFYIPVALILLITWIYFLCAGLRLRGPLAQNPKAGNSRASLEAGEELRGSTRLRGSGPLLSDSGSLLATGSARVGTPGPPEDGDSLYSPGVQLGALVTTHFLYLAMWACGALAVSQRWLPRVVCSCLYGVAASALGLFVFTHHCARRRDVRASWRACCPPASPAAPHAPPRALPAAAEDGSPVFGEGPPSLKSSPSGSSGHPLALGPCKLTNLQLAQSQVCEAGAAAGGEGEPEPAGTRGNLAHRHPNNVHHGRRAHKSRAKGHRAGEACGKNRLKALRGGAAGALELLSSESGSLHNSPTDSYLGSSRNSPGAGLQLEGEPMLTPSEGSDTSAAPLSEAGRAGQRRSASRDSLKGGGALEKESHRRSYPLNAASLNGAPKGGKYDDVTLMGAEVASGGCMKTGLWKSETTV

348 GPCRs [5] = target: T5, 348 GPCRs (Homo sapiens, UniProt Q99527); conditions: 10µM, Favipiravir 100μM
T5 construct: expressed in transfected cells; host or cells: HEK293A

348 GPCRs [6] = target: T6, 348 GPCRs (Homo sapiens, UniProt Q9NYV7); conditions: 10µM, Favipiravir 100μM
T6 construct: expressed in transfected cells; host or cells: HEK293A
T6 sequence (Q9NYV7 1-291): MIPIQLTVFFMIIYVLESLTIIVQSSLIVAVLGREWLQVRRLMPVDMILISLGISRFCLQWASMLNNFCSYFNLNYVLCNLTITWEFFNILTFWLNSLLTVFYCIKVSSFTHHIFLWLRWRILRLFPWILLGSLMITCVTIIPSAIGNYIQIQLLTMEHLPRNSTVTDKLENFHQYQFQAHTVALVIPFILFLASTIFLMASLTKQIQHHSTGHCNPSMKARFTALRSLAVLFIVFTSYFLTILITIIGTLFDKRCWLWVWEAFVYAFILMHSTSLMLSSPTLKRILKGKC

[7] = read-out: % GPCR activation compared to TPA, GPCR OXTR (oxytocin Receptor)
[8] = read-out: % GPCR activation compared to TPA, GPCR V1B (arginine vasopressin receptor 1B)
[9] = read-out: % GPCR activation compared to TPA, GPCR GPR50 (G Protein-Coupled Receptor 50)
[10] = read-out: % GPCR activation compared to TPA, GPCR GPR124 (Adhesion G Protein-Coupled Receptor A2 (ADGRA2))
[11] = read-out: % GPCR activation compared to TPA, GPER (G protein-coupled estrogen receptor 1)
[12] = read-out: % GPCR activation compared to TPA, TAS2R16 (taste receptor, type 2, member 16)
[13] = GPCR OXTR (oxytocin Receptor), read-out: % GPCR activation compared to TPA
[14] = GPCR V1B (arginine vasopressin receptor 1B), read-out: % GPCR activation compared to TPA
[15] = GPCR GPR50 (G Protein-Coupled Receptor 50), read-out: % GPCR activation compared to TPA
[16] = GPCR GPR124 (Adhesion G Protein-Coupled Receptor A2 (ADGRA2)), read-out: % GPCR activation compared to TPA
[17] = GPER (G protein-coupled estrogen receptor 1), read-out: % GPCR activation compared to TPA
[18] = TAS2R16 (taste receptor, type 2, member 16), read-out: % GPCR activation compared to TPA

T5 sequence (Q99527 whole entry): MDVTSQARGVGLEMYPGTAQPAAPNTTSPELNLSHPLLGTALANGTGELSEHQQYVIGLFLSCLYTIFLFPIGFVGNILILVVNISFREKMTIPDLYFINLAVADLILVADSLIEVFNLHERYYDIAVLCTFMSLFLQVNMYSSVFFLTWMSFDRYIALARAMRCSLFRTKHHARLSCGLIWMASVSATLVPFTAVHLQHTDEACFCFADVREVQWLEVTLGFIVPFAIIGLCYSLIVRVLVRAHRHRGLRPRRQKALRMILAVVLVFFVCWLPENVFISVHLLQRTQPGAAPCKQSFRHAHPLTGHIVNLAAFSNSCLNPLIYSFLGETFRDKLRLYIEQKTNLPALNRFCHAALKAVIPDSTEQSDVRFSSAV
T3 sequence (Q13585 whole entry): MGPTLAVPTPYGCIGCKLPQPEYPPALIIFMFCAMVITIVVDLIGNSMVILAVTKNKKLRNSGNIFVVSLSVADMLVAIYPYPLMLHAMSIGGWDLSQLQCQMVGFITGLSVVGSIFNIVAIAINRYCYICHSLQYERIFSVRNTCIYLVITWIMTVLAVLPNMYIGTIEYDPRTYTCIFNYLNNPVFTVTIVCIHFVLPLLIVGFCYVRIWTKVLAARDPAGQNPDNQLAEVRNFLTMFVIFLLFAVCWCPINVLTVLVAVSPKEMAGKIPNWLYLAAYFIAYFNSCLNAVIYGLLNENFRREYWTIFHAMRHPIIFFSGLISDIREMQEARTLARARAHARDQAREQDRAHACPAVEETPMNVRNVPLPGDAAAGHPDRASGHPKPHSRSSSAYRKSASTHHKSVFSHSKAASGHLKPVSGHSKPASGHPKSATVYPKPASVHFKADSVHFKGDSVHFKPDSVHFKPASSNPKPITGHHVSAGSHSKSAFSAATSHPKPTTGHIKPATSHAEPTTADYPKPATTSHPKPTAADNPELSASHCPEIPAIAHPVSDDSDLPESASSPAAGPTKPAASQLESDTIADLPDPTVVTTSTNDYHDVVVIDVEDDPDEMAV

Q: What does the source list for CC(C)OC(=O)[C@H](C)N[P@](=O)(OC[C@H]1O[C@@H](n2ccc(=O)[nH]c2=O)[C@](C)(F)[C@@H]1O)Oc1ccccc1 [sofosbuvir]?
A: activation at 10 µM (348 GPCRs [1]; [7]): -3.36%; activation at 10 µM (348 GPCRs [2]; [8]): -0.149%; activation at 10 µM (348 GPCRs [3]; [9]): -0.301%; activation at 10 µM (348 GPCRs [4]; [10]): 1.09%; activation at 10 µM (348 GPCRs [5]; [11]): -0.815%; activation at 100 µM (348 GPCRs [6]; [12]): -1%

Q: What does the source list for CC(C)C(=O)OC[C@H]1O[C@@H](n2ccc(NO)nc2=O)[C@H](O)[C@@H]1O [molnupiravir]?
A: activation at 10 µM (348 GPCRs [1]; [13]): -2.8%; activation at 10 µM (348 GPCRs [2]; [14]): -0.66%; activation at 10 µM (348 GPCRs [3]; [15]): -1.45%; activation at 10 µM (348 GPCRs [4]; [16]): -0.928%; activation at 10 µM (348 GPCRs [5]; [17]): -1.26%; activation at 100 µM (348 GPCRs [6]; [18]): -0.65%

Q: What does the source list for NC(=O)c1nc(F)cnc1O [favipiravir, 6-fluoro-3-hydroxy-2-pyrazinecarboxamide]?
A: activation at 100 µM (348 GPCRs [1]; GPCR OXTR (oxytocin Receptor), 100μM, read-out: % GPCR activation compared to TPA): -0.726%; activation at 100 µM (348 GPCRs [2]; GPCR V1B (arginine vasopressin receptor 1B), 100μM, read-out: % GPCR activation compared to TPA): 1.12%; activation at 100 µM (348 GPCRs [3]; GPCR GPR50 (G Protein-Coupled Receptor 50), 100μM, read-out: % GPCR activation compared to TPA): -0.692%; activation at 100 µM (348 GPCRs [4]; GPCR GPR124 (Adhesion G Protein-Coupled Receptor A2 (ADGRA2)), 100μM, read-out: % GPCR activation compared to TPA): -1.17%; activation at 10 µM (348 GPCRs [5]; [17]): -2.76%; activation at 100 µM (348 GPCRs [6]; [18]): 0.411%

Q: For N#C[C@@]1(c2ccc3c(N)ncnn23)O[C@H](CO)[C@@H](O)[C@H]1O [GS441524], which activation at 10 µM (348 GPCRs [1]; [13]) is on record?
A: The activation at 10 µM was -1.2%.

Q: What about the activation at 10 µM (348 GPCRs [2]; [14]) of the same compound?
A: Its activation at 10 µM is 0.627%.

Q: And the activation at 10 µM (348 GPCRs [3]; [15])?
A: Its activation at 10 µM is -1.05%.

Q: And the activation at 10 µM (348 GPCRs [4]; [16])?
A: Its activation at 10 µM is 0.29%.

Q: And the activation at 10 µM (348 GPCRs [5]; [17])?
A: The activation at 10 µM was -3.06%.

Q: What about the activation at 100 µM (348 GPCRs [6]; [18]) of the same compound?
A: The activation at 100 µM was -2.06%.

Q: Which activation at 10 µM (348 GPCRs [1]; [7]) does the source give for CCC(CC)COC(=O)[C@H](C)N[P@](=O)(OC[C@H]1O[C@@](C#N)(c2ccc3c(N)ncnn23)[C@H](O)[C@@H]1O)Oc1ccccc1 [remdesivir] here?
A: Its activation at 10 µM is 0.33%.

Q: And the activation at 10 µM (348 GPCRs [2]; [8])?
A: Its activation at 10 µM is 1.47%.

Q: What about the activation at 10 µM (348 GPCRs [3]; [9]) of the same compound?
A: The activation at 10 µM was -1.37%.

Q: And the activation at 10 µM (348 GPCRs [4]; [10])?
A: The activation at 10 µM was -0.926%.

Q: What about the activation at 10 µM (348 GPCRs [5]; [11]) of the same compound?
A: Its activation at 10 µM is 1.6%.

Q: What about the activation at 100 µM (348 GPCRs [6]; [12]) of the same compound?
A: Its activation at 100 µM is 0.556%.
